Reference: patent US7501434B2, “6-carboxy-normorphinan derivatives, synthesis and uses thereof” (Wyeth, priority 2006, dated 2009)

Key:
μ opioid = μ opioid (Homo sapiens, UniProt P35372); conditions: from WO2006/127898 and WO2006/127899; cited from earlier work
[1] = molecular target: T1, human recombinant Mu opioid receptors (Homo sapiens, UniProt P35372); assay: cell-based
T1 construct: expressed in transfected cells; host or cells: CHO cells

Mu (h) = Mu (h) (Homo sapiens, UniProt P35372); format: binding
Sequence of Mu (h) (P35372 whole entry): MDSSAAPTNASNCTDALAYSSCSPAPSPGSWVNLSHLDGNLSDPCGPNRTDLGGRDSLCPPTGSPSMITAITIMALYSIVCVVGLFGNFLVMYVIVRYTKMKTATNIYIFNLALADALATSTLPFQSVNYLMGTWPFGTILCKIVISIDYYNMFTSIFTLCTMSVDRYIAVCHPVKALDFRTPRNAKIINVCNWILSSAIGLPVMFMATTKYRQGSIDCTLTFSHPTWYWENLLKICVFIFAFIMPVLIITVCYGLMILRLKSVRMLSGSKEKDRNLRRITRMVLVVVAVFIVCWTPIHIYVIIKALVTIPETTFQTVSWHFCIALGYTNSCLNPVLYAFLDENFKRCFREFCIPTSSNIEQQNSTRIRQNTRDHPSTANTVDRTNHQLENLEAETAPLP

Kappa 1 = Kappa 1 (UniProt P41144); format: binding
[2] = Administration in GI-physiology altered dogs (plasma pharmacokinetics); format: in vivo; conditions: male, beagle, dog, po, 50 mg, single 50 mg capsule
Procedure: A 50 mg capsule formulation of Compound Ia was screened in gastrointestinal (GI) physiology regulated male beagle dogs. Atropine (˜20 μg/kg; IV) and pentagastrin (˜10 μg/kg; IM) were administered 15 minutes prior to formulation administration and another dose of pentagastrin (10 μg/kg; IM) was administered 30 minutes post dose. Atropine slows down canine GI motility and pentagastrin decreases pH resulting in GI conditions almost similar to that of humans. The capsules ([…]) via oral administration following an overnight fast and blood samples were drawn at 0 (predose), 0.5, 1, 2, 3, 4, 6, 8, 12, 24 and 48 hours after dosing; plasma was separated and assayed for Compound Ia content. All dogs were fed 4 hours post dose.
50 mg Compound Ia capsule contained neat 51.5 mg of Compound Ia 97% purity (50 mg of Compound Ia), filled in #AA-DB HGC Swedish orange capsule.
Bioanalytical results were received and a preliminary PK assessment was performed. Individual dog plasma Compound Ia concentration-time profiles were subjected to noncompartmental pharmacokinetic analyses (WinNonlin, Model 200). The following pharmacokinetic parameters were determined for each dog, and descriptive statistics were calculated: AUC, Cmax, and tmax.

Aqueous solubility = format: physicochemical; conditions: thermodynamic from solid; pH: 2.2, water
Procedure: >56 mg/ml (pH: 2.2) by adding certain additive amounts of I-1 to 1 ml of water.

[3] = Partition coefficient determination (1-octanol/water); format: physicochemical; conditions: pH: 2.2
Procedure: The partition coefficient of Compound I-1 was determined by the following method. • 1. 20.131 mg of Compound I-1 was dissolved in 2 mL of water saturated with 1-octanol. • 2. 2 mL of 1-octanol saturated with water was added to the solution from step 1. • 3. The two layers were shaken over night at room temperature. • 4. The two layers were analyzed for the concentration of Compound I-1.

Delta 2 (h) = Delta 2 (h) (Homo sapiens, UniProt P41143); assay: Neurotransmitter assay (radioligand binding), Delta 2 (h); conditions: radioligand [3H]-Naltrindole
Sequence of Delta 2 (h) (P41143 whole entry): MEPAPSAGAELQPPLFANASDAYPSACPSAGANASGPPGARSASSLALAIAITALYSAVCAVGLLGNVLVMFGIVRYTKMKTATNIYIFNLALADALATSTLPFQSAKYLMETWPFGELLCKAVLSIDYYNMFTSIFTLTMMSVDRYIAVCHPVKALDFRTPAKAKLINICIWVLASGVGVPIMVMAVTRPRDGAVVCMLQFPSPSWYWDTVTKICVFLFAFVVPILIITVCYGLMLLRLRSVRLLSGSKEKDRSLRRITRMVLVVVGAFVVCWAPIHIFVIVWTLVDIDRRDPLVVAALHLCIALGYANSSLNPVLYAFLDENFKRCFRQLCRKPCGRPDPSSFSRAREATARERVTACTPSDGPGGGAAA

[4] = white crystalline powder from Mallinckrodt Pharmaceuticals; cited from earlier work

Sequence of μ opioid (P35372 whole entry): as the sequence (P35372 whole entry) above
T1 sequence (P35372 whole entry): as above

## C[N+]1(CC2CC2)CC[C@]23c4c5ccc(O)c4O[C@H]2C(=O)CC[C@@]3(O)[C@H]1C5 (stereo partly shown) [S-methylnaltrexone]
μ opioid
  Activity at μ opioid receptor (agonist/antagonist): peripheral μ opioid agonist

## C[N+]1(CC2CC2)CC[C@]23c4c5ccc(O)c4O[C@H]2[C@](O)(C(=O)O)C[C@@]3(O)[C@H]1C5 (stereo partly drawn) [Compound Ia, (3R,4R,4aS,6aR,11bS)-6-carboxy-3-(cyclopropylmethyl)-4-a,6,8-trihydroxy-3-methyl-1,2,3,4,4a,5,6,6a-octahydro-4,11-methano[1]benzofuro[3′,2′:2,3]cyclopenta[1,2-c]pyridin-3-ium]
[1]
  IC50: 170 nM
Mu (h)
  Percent Inhibition (Average; N = 2): 81.62%
Kappa 1
  Percent Inhibition (Average; N = 2): 82.09%
[2]; Dog 1, PO
  AUC(0-inf): 4690 ng·h/mL
  AUC(0-t): 4630 ng·h/mL
  Cmax: 825 ng/mL
  Tmax: 2 h
  half-life: 3.9 h
[2]; Dog 2, PO
  AUC(0-inf): 7740 ng·h/mL
  AUC(0-t): 7720 ng·h/mL
  Cmax: 1670 ng/mL
  Tmax: 3 h
  half-life: 2.8 h
[2]; Dog 3, PO
  AUC(0-inf): 6220 ng·h/mL
  AUC(0-t): 6210 ng·h/mL
  Cmax: 1580 ng/mL
  Tmax: 1 h
  half-life: 1.1 h
[2]; Mean, N 3 dogs
  AUC(0-inf): 6220 ng·h/mL
  AUC(0-t): 6190 ng·h/mL
  Cmax: 1360 ng/mL
  Tmax: 2 h
  half-life: 2.6 h
[2]; Median, N 3 dogs
  AUC(0-inf): 6220 ng·h/mL
  AUC(0-t): 6210 ng·h/mL
  Cmax: 1580 ng/mL
  Tmax: 2 h
  half-life: 2.8 h
Aqueous solubility
  solubility: > 56 mg/mL
[3]
  logP: -2.15
Delta 2 (h)
  Percent Inhibition (Average; N = 2): 44.47%

## C[N@@+]1(CC2CC2)CC[C@]23c4c5ccc(O)c4O[C@H]2C(=O)CC[C@@]3(O)C1C5 [R-methylnaltrexone]
μ opioid
  Activity at μ opioid receptor (agonist/antagonist): antagonist activity

## C[N+]1(CC2CC2)CC[C@]23c4c5ccc(O)c4O[C@H]2C(=O)CC[C@@]3(O)[C@H]1C5 (stereo partly shown) [methylnaltrexone]
[4]
  Solubility in water: freely soluble in water
